The text below walks through data of ChEMBL document CHEMBL1131821, “SAR in the alkoxy lactone series: the discovery of DFP, a potent and orally active COX-2 inhibitor” (Bioorg Med Chem Lett, 1999).

Data set [1] has as its target T1, Prostaglandin G/H synthase 1 (Homo sapiens, UniProt P23219). Format: tissue-based, Blood.
Description: Inhibitory activity against Prostaglandin G/H synthase 1 in human whole blood
The target in data set [2] is T1, Prostaglandin G/H synthase 1. The experiment in a line: In vitro inhibitory activity against Prostaglandin G/H synthase 1 in human whole blood assay.
For data set [3], the system named is Rattus norvegicus. The experiment in a line: In vivo effective concentration of compound in rat adjuvant arthritis. Format: functional.
In data set [4] the test system is Rattus norvegicus. The experiment in a line: In vivo effective concentration of compound in rat paw edema. Format: functional.
Data set [5] has as its system Rattus norvegicus. The data set is described as follows: In vivo effective concentration of compound in rat pyresis. The data set is classed as functional.
The test system of data set [6] is Rattus norvegicus. The experiment in a line: In vivo effective concentration of compound in rat hyperalgesia. The data set is classed as functional.
Data set [7] is described as follows: Half life by ''Cr'' assay in dog at a dose of 5 mg/kg. The data set is classed as ADME, organism-based, Canis lupus familiaris. The conditions noted are these: in vivo. Also on record: dose 5 mg/kg.
A short description of data set [8]: Half life the of compound was determined by ''Cr'' assay in squirrel monkey at a dose of 5 mg/kg. The conditions noted are these: in vivo. The data set is classed as ADME, organism-based. Set-up: dose 5 mg/kg.
Data set [9] can be described thus: Maximal concentration (Cmax) in rhesus monkey plasma at a dose of 5 mg/kg. Format: ADME, organism-based. Also on record: dose 5 mg/kg. The conditions noted are these: cercopithecidae.
Data set [10] in a line: Maximal concentration (Cmax) in squirrel monkey plasma at a dose of 5 mg/kg. Format: ADME, organism-based. Set-up: dose 5 mg/kg.
A short description of data set [11]: Maximal concentration (Cmax) in dog plasma at a dose of […] mg/kg. The data set is classed as ADME, organism-based, Canis lupus familiaris. The conditions noted are these: 5 mg/kg.
Data set [12] in a line: Maximal concentration (Cmax) in the rat plasma at a dose of 10 mg/kg. Set-up: dose 10 mg/kg. Format: ADME, organism-based.
The nature of data set [13]: Half life the of compound was determined by ''Cr'' assay in rat at a dose of 10 mg/kg. The data set is classed as ADME, organism-based. Set-up: dose 10 mg/kg. The conditions noted are these: in vivo.
In data set [14] the target is T1, Prostaglandin G/H synthase 1. The data set is described as follows: Inhibitory activity against Human Prostaglandin G/H synthase 1 in U937 Microsome COX-1 assay at a concentration of 30 uM.
Data set [15] can be described thus: Half life by ''Cr'' assay in rhesus monkey at a dose of 5 mg/kg. Format: ADME, organism-based. Set-up: dose 5 mg/kg. The conditions noted are these: cercopithecidae, in vivo.
Data set [16] addresses T1, Prostaglandin G/H synthase 1. The experiment in a line: Inhibitory activity against Human Cyclooxygenase-1 ( COX-1 ) in U937 Microsome COX-1 assay.
Data set [17] shares this target. The data set is described as follows: Inhibitory activity against Human Prostaglandin G/H synthase 1 in U937 Microsome COX-1 assay.

T1 sequence (P23219 whole entry): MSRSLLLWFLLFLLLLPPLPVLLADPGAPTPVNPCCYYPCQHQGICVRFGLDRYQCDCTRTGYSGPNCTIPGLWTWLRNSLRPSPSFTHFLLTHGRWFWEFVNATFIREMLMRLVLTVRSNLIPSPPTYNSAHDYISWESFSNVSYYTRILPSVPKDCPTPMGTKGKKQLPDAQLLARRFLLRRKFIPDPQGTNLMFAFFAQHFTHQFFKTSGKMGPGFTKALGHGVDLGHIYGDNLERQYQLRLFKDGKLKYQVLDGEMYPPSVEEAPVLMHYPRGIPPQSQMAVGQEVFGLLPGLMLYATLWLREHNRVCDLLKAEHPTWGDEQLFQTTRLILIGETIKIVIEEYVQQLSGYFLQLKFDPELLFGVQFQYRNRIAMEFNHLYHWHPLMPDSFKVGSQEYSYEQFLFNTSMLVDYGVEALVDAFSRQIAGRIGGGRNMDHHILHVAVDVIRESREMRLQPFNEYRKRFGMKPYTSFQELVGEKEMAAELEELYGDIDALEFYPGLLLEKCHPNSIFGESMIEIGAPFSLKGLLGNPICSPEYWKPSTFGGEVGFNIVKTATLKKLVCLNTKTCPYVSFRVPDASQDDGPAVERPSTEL

Take `CC1(C)OC(=O)C(OC2CCC2)=C1c1ccc(S(C)(=O)=O)cc1`: it took 30 µM to reach half-maximal inhibition in data set [1] (IC50).

Turning to `CCC(C)OC1=C(c2ccc(S(C)(=O)=O)cc2)C(C)(C)OC1=O` (configuration not stated), in [1], it took 10 µM to reach half-maximal inhibition (IC50).

Compound `CC1(C)OC(=O)C(OC2CCCCC2)=C1c1ccc(S(C)(=O)=O)cc1` displayed an IC50 in data set [2] of more than 58 µM.

Regarding `CCC(CC)OC1=C(c2ccc(S(C)(=O)=O)cc2)C(C)(C)OC1=O`, the IC50 in data set [1] was 39 µM.

Turning to `CC1(C)OC(=O)C(OC2CCCC2)=C1c1ccc(S(C)(=O)=O)cc1`, the IC50 in data set [1] is more than 100 µM.

With `COc1ccc2c(c1)c(CC(=O)O)c(C)n2C(=O)c1ccc(Cl)cc1` [INDOMETHACIN], the ED50 in the data set with Rattus norvegicus [3] was determined as 0.2 mg/kg; in the data set with Rattus norvegicus [4] it was 2 mg/kg; with Rattus norvegicus [5], 1.1 mg/kg; with Rattus norvegicus [6] it was 1.5 mg/kg.

With `CC(C)OC1=C(c2ccc(S(C)(=O)=O)cc2)C(C)(C)OC1=O`, the half-life in data set [7] was 4.8 h; in [8] it was 1.4 h; in [13] it was 7.1 h; in [15], 2 h. For the same compound, the Cmax worked out at 3 µM in data set [9], 5.5 µM in data set [10], 12 µM in data set [11] and 15 µM in [12]. The compound further gave an inhibition in [14] of 32%. Moreover, the ED50 with Rattus norvegicus [3] is 0.15 mg/kg; in the data set on Rattus norvegicus [4], 0.8 mg/kg; with Rattus norvegicus [5], 0.3 mg/kg; with Rattus norvegicus [6] it was 0.8 mg/kg. The compound further registered an IC50 in data set [1] of more than 100 µM.

For the compound `CC(OC1=C(c2ccc(S(C)(=O)=O)cc2)C(C)(C)OC1=O)C1CC1` (configuration not stated), the IC50 turned out to be 6.5 µM in [16] and 36 µM in data set [1].

As to `CC1(C)OC(=O)C(OCC2CC2)=C1c1ccc(S(C)(=O)=O)cc1` [FIROCOXIB], the IC50 is 25 µM in data set [17] and more than 100 µM in data set [1].

One may read the IC50 as the point on the concentration scale where inhibition reaches its midpoint. As usually defined, the ED50 is the midpoint of the dose-response relation. In general, half-life refers to how long it takes for the measured level to halve. Usually Cmax stands for the peak of the concentration-time curve. One may read the inhibition as the relative decrease from the control value, in per cent.
